{"source": "paper PMC5427923", "about": "“A novel CCR2 antagonist inhibits atherogenesis in apoE deficient mice by achieving high receptor occupancy” (Scientific Reports, 2017)", "key": {"[1]": {"target": "T1, murine CCR2 (mCCR2) (Mus musculus, UniProt P51683)", "T1 construct": "expressed in transfected cells; host or cells: CHO cells, transient transfection (PEI) with pcDNA3.1+ plasmid; membrane preparation", "T1 sequence (P51683 whole entry)": "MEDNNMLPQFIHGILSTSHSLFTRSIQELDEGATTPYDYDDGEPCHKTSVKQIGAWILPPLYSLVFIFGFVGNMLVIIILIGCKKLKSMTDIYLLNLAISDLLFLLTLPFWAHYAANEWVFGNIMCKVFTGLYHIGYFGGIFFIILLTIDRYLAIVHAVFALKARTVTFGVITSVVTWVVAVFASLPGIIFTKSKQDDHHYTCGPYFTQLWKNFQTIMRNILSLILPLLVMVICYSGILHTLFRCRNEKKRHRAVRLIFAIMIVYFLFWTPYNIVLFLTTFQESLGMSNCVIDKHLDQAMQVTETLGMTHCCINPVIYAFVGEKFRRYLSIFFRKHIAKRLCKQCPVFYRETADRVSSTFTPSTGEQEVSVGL", "test": "[3H]INCB3344 displacement assay on CHO-mCCR2 membranes", "format": "binding", "details": "displacement of 5 nM [3H]INCB3344, CHO-mCCR2 membranes, 25 °C", "protocol": "Radioligand binding assays were performed in a 100 µL reaction volume containing 50 mM Tris-HCl buffer (pH 7.4), 5 mM MgCl2, 0.1% 3-[(3-cholamidopropyl)-dimethylammonio]-1-propanesulfonic acid (CHAPS), 5 nM [^3H]INCB3344 and 50 to 60 µg of membrane protein at 25 °C. Non-specific binding was determined with 10 μM of the cold ligand INCB3344. Displacement assays were carried out using 9 concentrations of competing ligand, ranging from 0.1 nM to 100 μM, for 120 min of incubation. The kinetic parameters of 15a were also determined at 25 °C using a competition association assay as previously described, [27]. […] Filter-bound radioactivity was determined by scintillation spectrometry after addition of Microscint scintillation cocktail (Perkin-Elmer, Groningen, the Netherlands). […]\nAll radioligand binding assays were analyzed using Prism 6.0 (GraphPad software, San Diego, CA, USA). […] Ki values were calculated from IC50 values obtained by non-linear regression analysis of the displacement assays and by using the Cheng-Prusoff equation[47]. Dissociation rate constants k off were determined by fitting the dissociation data using an exponential decay model. […] The kinetic profile of compound 15a was determined by calculation of its kinetic rate index (KRI) value. […] In addition, the RT was calculated by obtaining the reciprocal of the k off. Data obtained from in vivo experiments are expressed as mean ± SEM. […]"}, "[2]": {"system": "apoE−/− mice", "test": "Atherosclerotic lesion development in Western-type diet fed apoE−/− mice (carotid collar, aortic root)", "format": "in vivo, mouse", "description": "Male apoE^−/− mice (10–12 weeks old), obtained from the local animal breeding facility (Gorlaeus Laboratories, Leiden, The Netherlands), were fed a Western type diet, containing 0.25% cholesterol and 15% cocoabutter (SDS, Sussex, UK).\nTo determine the effect of the CCR2 antagonist on atherosclerotic lesion development, mice were fed a Western type diet, containing 0.25% cholesterol and 15% cocoabutter (SDS, Sussex, UK) throughout the experiment starting two week before surgery. Carotid artery plaque formation was induced by perivascular collar placement as described previously[46] and from the time of surgery, the mice received daily intraperitoneal injections containing 15a (5 mg/kg/day) or vehicle control (n = 9–10 per group). During the experiment, total body weight and weight gain were measured. Serum total cholesterol levels were determined using an enzymatic colorimetric assay according to manufacturer’s protocol (Roche Diagnostics). Precipath (standardized serum; Boehringer Mannheim, Germany) was used as an internal standard. Plasma cytokine levels were measured by ELISA according to manufacturer’s protocol (BD Biosciences). Blood was collected weekly via tail cut. Total cell count and cellular differentiation patterns in blood were analyzed using an automated XT-2000iV veterinary hematology analyzer (Sysmex Europe GMBH, Norderstedt, Germany). After erythrocyte lysis, blood leukocyte suspensions were stained for surface markers, after which their expression was determined by FACS analysis (FACS Canto, BD Biosciences). After 4 weeks of lesion development, the animals were anaesthetized and blood was collected. After in situ perfusion through the left cardiac chamber, the carotid arteries and hearts were harvested.\nCarotid artery cryosections of 5 µm thick were prepared, which were stained with hematoxylin-eosin to determine plaque size and necrotic core size. Morphometric analysis was performed on sections throughout the atherosclerotic lesion (100 µm apart) and at the site of maximal stenosis using Leica Qwin image analysis software. The relative necrotic area was defined as the a-cellular, debris-rich plaque area as percentage of total plaque area, and also quantified using Leica QWin software.\nThe hearts were dissected just below the atria and sectioned perpendicular to the axis of the aorta, starting within the heart and working in the direction of the aortic arch. Once the aortic root was identified by the appearance of aortic valve leaflets, 10 µm sections were collected. Mean lesion area (in µm^2) of the aortic root was calculated from six Oil-Red-O stained sections in distal direction starting at the point where all three aortic valve leaflets first appeared.\nMacrophage content of the lesions in carotid arteries and aortic roots was stained using a rat monoclonal MOMA2 antibody (1:1000, Serotec, Kidlington, Oxford, UK). Macrophage positive areas were analyzed using computer-assisted colour-gated analysis, and related to the total intimal surface area (Leica QWin). Liver cryosections of 10 µm thick were prepared and subsequently stained with hematoxylin-eosin to analyze liver morphology, which was assessed using a Leica DMRE microscope (Leica Ltd., Cambridge, England)."}}, "data": [{"compound": "CC(C)[C@]1(C(=O)N2CCc3ccc(C(F)(F)F)cc3C2)CC[C@@H](N[C@@H]2CCc3cc(Br)ccc32)C1", "note": "[15a, ((1S,3R)-3-(((R)-5-bromo-2,3-dihydro-1H-inden-1-yl)amino)-1-isopropylcyclopentyl)(7-(trifluoromethyl)-3,4-dihydroisoquinolin-2(1H)-yl)methanone]", "values": [{"measurement": "Ki", "setting": "[1]", "result": 10.6, "unit": "nM"}, {"measurement": "atherosclerotic plaque size in the carotid artery at the site of maximal stenosis", "setting": "[2]; 5 mg/kg/day i.p., 4 weeks, controls 64.4 ± 11.8", "result": "17.6 ± 4.1 *10^3 µm^2"}, {"measurement": "relative necrotic area", "setting": "[2]; carotid artery plaques, controls 35.3 ± 8.2%", "result": "7.6 ± 4.5", "unit": "%"}, {"measurement": "plaque volume throughout the carotid arteries", "setting": "[2]; controls 1.75 ± 0.33", "result": "0.46 ± 0.13 *10^7 µm^3"}, {"measurement": "aortic root plaque volume", "setting": "[2]; controls 11.8 ± 1.2", "result": "7.4 ± 0.7 *10^7 µm^3"}, {"measurement": "macrophage positive area of the carotid artery plaques (MOMA2)", "setting": "[2]; controls 22.3 ± 4.1", "result": "6.2 ± 2.5 *10^3 µm^2"}, {"measurement": "relative macrophage content (corrected for lesion size), carotid artery", "setting": "[2]; controls 46 ± 4%", "result": "25 ± 8", "unit": "%"}, {"measurement": "macrophage positive area, aortic root", "setting": "[2]; controls 92.0 ± 15.6", "result": "37.2 ± 8.7 *10^3 µm^2"}, {"measurement": "aortic root average plaque size", "setting": "[2]; controls 215.9 ± 24.6", "result": "157.0 ± 15.7 *10^3 µm^2"}, {"measurement": "reduction in carotid artery lesion size", "setting": "[2]; mouse, in vivo", "result": "more than 70%"}, {"measurement": "change in carotid artery plaque size versus control", "setting": "[2]; site of maximal stenosis", "result": "−73", "unit": "%"}]}]}
